The assay relates to Blattalla germanica. The assay is described as follows: Test Example 3: filter paper with sucrose bait, death rate of Blattalla germanica. The class given is in vivo. Particulars: 500 ppm test solution, 0.7 ml on filter paper; 2 male imagoes; after 6 days. Here is the method: A formulation of any one of the present compounds (3) and (4) obtained according to Formulation Example 5 was diluted with water to prepare a test solution having 500 ppm of the active ingredient.
A filter paper having a diameter of 5.5 cm was spread on the bottom of a polyethylene cup having a diameter of 5.5 cm and 0.7 ml of the test solution was added dropwise onto the filter paper. As a bait, 30 mg of sucrose was uniformly placed on the filter paper. Into the polyethylene cup, 2 male imagoes of Blattalla germanica were released and the cup was sealed with a lid. After 6 days, the number of surviving or dead Blattalla germanica was counted and the death rate of the pest was calculated.

Turning to `CC(C)OCCS(=O)(=O)C(C#N)CCC(F)(F)C(F)(F)F` (centres unmarked) [(3)], the pest death rate worked out at 100%.
For `COC(C)(C)CS(=O)(=O)C(C#N)CCC(F)(F)C(F)(F)F` (centres unmarked) [(4)] the value was 100%.

The values are drawn from US20120184613A1, “SULFUR-CONTAINING COMPOUND AND USE THEREOF” (SUMITOMO CHEMICAL COMPANY, LIMITED, priority 2008, published 2012).
